{"source": "patent US4452817A", "about": "“Anaesthetic compositions containing 2,6-diisopropylphenol” (Imperial Chemical Industries PLC, priority 1974, dated 1984)", "key": {"mice [1]": {"test_system": "mice", "assay": "Mean sleeping time of mice after twice the HD50, intravenous", "assay_type": "in vivo, mouse", "details": "for 2,6-diisopropylphenol 27 mg./kg., standard deviation ±0.59 minutes", "description": "Each of 10 mice is injected intravenously with 27 mg./kg. bodyweight (twice the HD50) of 2,6-diisopropylphenol as a 1% sterile solution described in Example 14."}, "[2]": {"assay": "HD50 (anaesthesia, loss of righting reflex) and LD50 in mice, intravenous", "details": "mouse, in vivo; for LD50: mice", "description": "(§1) Each mouse is various groups of 10 mice is injected intravenously with a 1% sterile solution of 2,6-diisopropylphenol as described in Example 14, the total dose administered being the same within any group but differing between groups."}, "mice [3]": {"test_system": "mice", "assay": "HD50 (anaesthesia, loss of righting reflex) and LD50 in mice, intravenous", "details": "Mus musculus, read-out: HD50 (dose required to cause anaesthesia, loss of righting reflex for at least 30 seconds, in 5 out of 10 mice)", "description": "as §1"}, "cat [4]": {"test_system": "cat", "details": "10 mg./kg. i.v. plus four supplementary i.v. injections each of 2.0 mg./kg.", "from_the_text": "A cat weighing 2.5 kg. is anaesthetised exactly as described in Example 17."}, "cat [5]": {"test_system": "cat", "assay": "Intramuscular anaesthesia in a cat (Example 20)", "assay_type": "in vivo", "details": "35 mg./kg. intramuscularly", "description": "Righting reflexes are lost after 15 minutes, after a further 25 minutes anaesthesia has deepened sufficiently to allow intubation to be carried out. Muscle tone returns after a further 60 minutes and thereafter recovery is uneventful."}, "cat [6]": {"test_system": "cat", "details": "10 mg./kg. i.v., topical anaesthetic applied to the larynx", "from_the_text": "A cat is anaesthetised exactly as described in Example 17. […] Anaesthesia is thereafter maintained with an inhalation anaesthetic delivered through an Ayre's T-piece circuit."}, "[7]": {"test_system": "mice, rats, rabbits, cats, rhesus or pigtail monkeys, pigs, sheep, horses, or cattle", "assay": "Intravenous anaesthesia in various animal species", "assay_type": "in vivo", "description": "Anaesthesia is produced in less than 1 minute and lasts, depending upon the species and the dose, from 3 to 25 minutes. […] The compound may also be administered intramuscularly."}, "pigtail monkey": {"test_system": "pigtail monkey", "details": "2% solution", "description": "A 2% sterile solution of 2,6-diisopropylphenol prepared as described in Example 14 is administered intravenously to a pigtail monkey weighing 6.8 kg. at a rate of 0.05 mg. of phenol/kg. bodyweight/second until a dose of 34 mg. (5 mg./kg. bodyweight) of the phenol has been injected."}, "cat [8]": {"test_system": "cat", "details": "5 cats, 2% solution"}, "[9]": {"details": "LD50 (dose required to kill 5 out of 10 mice), intravenous, 2,6-diisopropylphenol as 1% sterile solution of Example 14"}, "[10]": {"details": "intravenous, single dose of between 2.5 and 10 mg. per kg. bodyweight"}}}
{"molecule": "CCCC(C)C1(CC)C(=O)NC(=S)NC1=O", "note": "(centres unmarked) [thiopentone sodium, reference compound]", "values": [{"measurement": "Mean sleeping time after twice the HD50", "setting": "mice [1]", "value": "5.97 ± 1.63", "unit": "min"}, {"measurement": "selectivity ratio", "setting": "[2]", "value": 4.26}, {"measurement": "LD50", "setting": "[2]; [9]", "value": 100, "unit": "mg/kg"}, {"measurement": "ED50", "setting": "mice [3]", "value": 23.5, "unit": "mg/kg"}]}
{"molecule": "CC(C)c1cccc(C(C)C)c1O", "note": "[2,6-diisopropylphenol]", "values": [{"measurement": "Quality of recovery after the operation", "setting": "cat [4]", "value": "rapid"}, {"measurement": "Time after completion of the operation until cat is able to stand", "setting": "cat [4]", "value": 35, "unit": "min"}, {"measurement": "Maintenance of anaesthesia during 45 minute laparotomy", "setting": "cat [4]; 2% solution", "value": "anaesthesia is maintained during that time"}, {"measurement": "Further time (after intubation depth) until muscle tone returns", "setting": "cat [5]; 2% solution", "value": 60, "unit": "min"}, {"measurement": "Further time after loss of righting reflexes until anaesthesia is deep enough for intubation", "setting": "cat [5]; 2% solution", "value": 25, "unit": "min"}, {"measurement": "Quality of recovery", "setting": "cat [5]; 2% solution", "value": "uneventful"}, {"measurement": "Time to loss of righting reflexes", "setting": "cat [5]; 2% solution", "value": 15, "unit": "min"}, {"measurement": "Pain or lesion at the site of injection", "setting": "cat [5]; during the subsequent 7 days", "value": "No pain or lesion at the site of injection is observed"}, {"measurement": "Mean sleeping time after twice the HD50", "setting": "mice [1]", "value": 4.29, "unit": "min"}, {"measurement": "Depth of anaesthesia", "setting": "cat [6]", "value": "sufficient depth to allow intubation of the trachea"}, {"measurement": "Quality of recovery", "setting": "[7]; all animals, intravenous, 2.5 to 10 mg. per kg.", "value": "normal and rapid"}, {"measurement": "Adverse side-effects", "setting": "[7]; at anaesthetic doses", "value": "no adverse side-effects are noted"}, {"measurement": "Quality of anaesthesia produced", "setting": "[7]; [10]", "value": "smooth and rapid anaesthesia"}, {"measurement": "Time in which anaesthesia is produced", "setting": "[7]; [10]", "value": "less than 1 minute"}, {"measurement": "Induction of anaesthesia", "setting": "pigtail monkey; 5 mg./kg. i.v. at 0.05 mg./kg./second", "value": "smooth and rapid"}, {"measurement": "Duration of anaesthesia", "setting": "pigtail monkey; 5 mg./kg. i.v.", "value": "approximately 6 minutes"}, {"measurement": "Muscle relaxation", "setting": "pigtail monkey; 5 mg./kg. i.v.", "value": "muscle relaxation is produced"}, {"measurement": "Quality of recovery", "setting": "pigtail monkey; 5 mg./kg. i.v.", "value": "rapid"}, {"measurement": "Spinal reflexes", "setting": "pigtail monkey; 5 mg./kg. i.v.", "value": "spinal reflexes are depressed"}, {"measurement": "Time after induction at which recovery is almost complete", "setting": "pigtail monkey; 5 mg./kg. i.v.", "value": 16, "unit": "min"}, {"measurement": "selectivity ratio", "setting": "[2]", "value": 4.14}, {"measurement": "LD50", "setting": "[2]; [9]", "value": 56, "unit": "mg/kg"}, {"measurement": "LD50", "setting": "[2]; LD50 dose in mice (general description)", "value": 65, "unit": "mg/kg"}, {"measurement": "ED50", "setting": "mice [3]", "value": 13.5, "unit": "mg/kg"}, {"measurement": "Induction of anaesthesia", "setting": "cat [8]; 10 mg./kg. i.v. at 0.05 mg./kg./second", "value": "rapid and free from excitment"}, {"measurement": "Muscle relaxation", "setting": "cat [8]; 10 mg./kg. i.v.", "value": "muscle relaxation is produced"}, {"measurement": "Quality of further recovery", "setting": "cat [8]; 10 mg./kg. i.v.", "value": "smooth and rapid"}, {"measurement": "Spinal reflexes", "setting": "cat [8]; 10 mg./kg. i.v.", "value": "spinal reflexes are depressed"}, {"measurement": "Time to return of response to painful stimulation", "setting": "cat [8]; 10 mg./kg. i.v.", "value": "approximately 10 minutes"}, {"measurement": "Mean time from induction to reappearance of righting reflexes", "setting": "cat [8]; 10 mg./kg. i.v., standard deviation ±7.35 minutes", "value": 34, "unit": "min"}, {"measurement": "Mean time after induction until cat is able to stand again", "setting": "cat [8]; 10 mg./kg. i.v., ±10.29 minutes", "value": 42.6, "unit": "min"}]}
